In patent US11548871B2, “Triazole carbamate pyridyl sulfonamides as LPA receptor antagonists and uses thereof” (Gilead Sciences, Inc., priority 2019, dated 2023):

target: human LPAR1 (Homo sapiens, UniProt Q92633); experiment: LPAR1 intracellular calcium mobilization assay (antagonist mode)
Sequence (Q92633 whole entry): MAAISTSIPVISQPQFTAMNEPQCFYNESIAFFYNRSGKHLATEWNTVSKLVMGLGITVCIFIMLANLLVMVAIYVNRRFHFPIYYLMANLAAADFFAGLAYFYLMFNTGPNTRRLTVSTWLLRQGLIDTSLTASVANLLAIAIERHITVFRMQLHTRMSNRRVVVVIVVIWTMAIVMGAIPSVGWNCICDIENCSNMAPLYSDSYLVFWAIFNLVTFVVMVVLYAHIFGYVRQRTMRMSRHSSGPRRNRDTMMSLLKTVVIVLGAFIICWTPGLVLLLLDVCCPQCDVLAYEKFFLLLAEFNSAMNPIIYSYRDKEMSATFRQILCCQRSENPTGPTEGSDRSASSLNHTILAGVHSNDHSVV
Protocol: In vitro LPAR1 activity was measured in an intracellular calcium mobilization assay.
Prior to testing cell media were aspirated from the cells and replaced with 20 μL Calcium Dye Loading Buffer (DiscoverX Calcium NoWash^PLUS Assay Kit cat #90-0091) and 2.5 mM Probenecid (Sigma Aldrich cat #P8761, prepared fresh) in HBSS/20 mM Hepes for 60 min at 37° C.
For agonist dose curves, cells were removed from the incubator after dye loading and 10 μL HBSS/20 mM Hepes including 3× vehicle was added. Cells were incubated for 30 min at room temperature in the dark to equilibrate plate temperatures. An intermediate LPA dilution series was prepared in assay buffer to generate 4× stock. Calcium mobilization was monitored on a FLIPR Tetra (MDS, San Jose, Calif.) for 2 min and 10 μL 4×LPA in HBSS/20 mM Hepes was added to the cells 5 s into the assay.
An intermediate antagonist dilution series was prepared as 3× samples in assay buffer. After dye loading, cells were removed from the incubator and 10 μL 3× antagonist was added. Cells were incubated for 30 min at room temperature in the dark to equilibrate plate temperatures. The final vehicle (DMSO) concentration was 1%. Compound antagonist activities was measured on a FLIPR Tetra. Calcium mobilization was monitored for 2 min and 10 μL EC80 agonist in HBSS/20 mM Hepes was added to the cells 5 s into the assay. Compound activity was analyzed using CBIS data analysis suite (ChemInnovation Software, San Diego, Calif.).

| SMILES | EC50 |
| --- | --- |
| Cn1nnc(-c2ccc(NS(=O)(=O)CC#N)cn2)c1NC(=O)O[C@@H](c1ccccc1)C(F)F [Compound 13, (S)-2,2-difluoro-1-phenylethyl(4-(5-((cyanomethyl)sulfonamido)pyridin-2-yl)-1-methyl-1H-1,2,3-triazol-5-yl)carbamate] | 0.0714 µM |
| Cc1nc(-c2nnn(C)c2NC(=O)N[C@@H](c2ccccc2)C(F)(F)F)ccc1NS(C)(=O)=O [Compound 66, (S)-N-(2-methyl-6-(1-methyl-5-(3-(2,2,2-trifluoro-1-phenylethyl)ureido)-1H-1,2,3-triazol-4-yl)pyridin-3-yl)methanesulfonamide] | 0.54 µM |
| Cc1nc(-c2nnn(C)c2NC(=O)O[C@H](C)c2ccccc2Cl)ccc1NS(=O)(=O)CC#N [Compound 102, (R)-1-(2-chloro-phenyl)ethyl (4-(5-((cyano-methyl)sulfonamido)-6-methyl-pyridin-2-yl)-1-methyl-1H-1,2,3-triazol-5-yl)carbamate] | 0.0884 µM |
| Cc1nc(-c2nnn(C)c2NC(=O)O[C@H](CCl)c2ccccc2)ccc1NS(C)(=O)=O [Compound 49, (S)-2-chloro-1-phenylethyl (1-methyl-4-(6-methyl-5-(methylsulfonamido)pyridin-2-yl)-1H-1,2,3-triazol-5-yl)carbamate] | 0.203 µM |
| CNS(=O)(=O)Nc1ccc(-c2nnn(C)c2NC(=O)O[C@H](C)c2cccnc2Cl)nc1C [Compound 163, (R)-1-(2-chloropyridin-3-yl)ethyl (1-methyl-4-(6-methyl-5-((N-methylsulfamoyl)amino)pyridin-2-yl)-1H-1,2,3-triazol-5-yl)carbamate] | 0.208 µM |
| Cc1nc(-c2nnn(C)c2NC(=O)OCCC(C)C)ccc1NS(C)(=O)=O [Compound 33, isopentyl (1-methyl-4-(6-methyl-5-(methylsulfonamido)pyridin-2-yl)-1H-1,2,3-triazol-5-yl)carbamate] | 3.68 µM |
| Cc1nc(-c2nnn(C)c2NC(=O)O[C@H](CF)c2ccccc2)ccc1NS(C)(=O)=O [Compound 59, (S)-2-fluoro-1-phenylethyl (1-methyl-4-(6-methyl-5-(methylsulfonamido)pyridin-2-yl)-1H-1,2,3-triazol-5-yl)carbamate] | 0.0377 µM |
| C[C@@H](OC(=O)Nc1c(-c2ccc(NS(C)(=O)=O)c(F)n2)nnn1C)c1ccccc1Cl [Compound 5, (R)-1-(2-chlorophenyl)ethyl (4-(6-fluoro-5-(methylsulfonamido)pyridin-2-yl)-1-methyl-1H-1,2,3-triazol-5-yl)carbamate] | 0.0343 µM |
| CCn1nnc(-c2ccc(NS(C)(=O)=O)c(C)n2)c1NC(=O)O[C@H](C)c1cccnc1Cl [Compound 157, (R)-1-(2-chloropyridin-3-yl)ethyl (1-ethyl-4-(6-methyl-5-(methylsulfonamido)pyridin-2-yl)-1H-1,2,3-triazol-5-yl)carbamate] | 0.374 µM |
| C[C@@H](OC(=O)Nc1c(-c2cc(F)c(NS(C)(=O)=O)cn2)nnn1C)c1cccnc1Cl [Compound 158, (R)-1-(2-chloropyridin-3-yl)ethyl (4-(4-fluoro-5-(methylsulfonamido)pyridin-2-yl)-1-methyl-1H-1,2,3-triazol-5-yl)carbamate] | 0.0781 µM |
| Cc1nc(-c2nnn(C)c2NC(=O)OC(CCC2CC2)C(F)(F)F)ccc1NS(C)(=O)=O (centres unmarked) [Compound 46, 4-cyclopropyl-1,1,1-trifluorobutan-2-yl (1-methyl-4-(6-methyl-5-(methylsulfonamido)pyridin-2-yl)-1H-1,2,3-triazol-5-yl)carbamate] | 0.0913 µM |
| Cc1nc(-c2nnn(C)c2NC(=O)O[C@H](CF)c2ccccc2F)ccc1NS(C)(=O)=O [Compound 44, (S)-2-fluoro-1-(2-fluorophenyl)ethyl (1-methyl-4-(6-methyl-5-(methylsulfonamido)pyridin-2-yl)-1H-1,2,3-triazol-5-yl)carbamate] | 0.05 µM |
| Cc1nc(-c2nnn(CC#N)c2NC(=O)O[C@H](C)c2ccccc2)ccc1NS(C)(=O)=O [Compound 99, (R)-1-phenylethyl(1-(cyanomethyl)-4-(6-methyl-5-(methylsulfonamido)pyridin-2-yl)-1H-1,2,3-triazol-5-yl)carbamate] | 0.0446 µM |
| COc1nc(-c2nnn(C)c2NC(=O)O[C@@H](c2ccccc2)C(F)F)ccc1NS(C)(=O)=O [Compound 7, (S)-2,2-difluoro-1-phenylethyl (4-(6-methoxy-5-(methylsulfonamido)pyridin-2-yl)-1-methyl-1H-1,2,3-triazol-5-yl)carbamate] | 0.112 µM |
| Cc1ncc(Cl)cc1[C@@H](C)OC(=O)Nc1c(-c2ccc(NS(C)(=O)=O)cn2)nnn1C [Compound 113, (R)-1-(5-chloro-2-methylpyridin-3-yl)ethyl (1-methyl-4-(5-(methylsulfonamido)pyridin-2-yl)-1H-1,2,3-triazol-5-yl)carbamate] | 0.083 µM |
| COCC(OC(=O)Nc1c(-c2ccc(NS(C)(=O)=O)c(C)n2)nnn1C)c1ccccc1 (centres unmarked) [Compound 34, 2-methoxy-1-phenylethyl (1-methyl-4-(6-methyl-5-(methylsulfonamido)pyridin-2-yl)-1H-1,2,3-triazol-5-yl)carbamate] | 0.469 µM |
| Cn1nnc(-c2ccc(NS(C)(=O)=O)c(F)n2)c1NC(=O)O[C@@H](c1ccccc1)C(F)F [Compound 6, (S)-2,2-difluoro-1-phenylethyl (4-(6-fluoro-5-(methylsulfonamido)pyridin-2-yl)-1-methyl-1H-1,2,3-triazol-5-yl)carbamate] | 0.0713 µM |
| Cc1nc(-c2nnn(C)c2NC(=O)O[C@@H](c2cc(F)ccc2F)C(F)F)ccc1NS(C)(=O)=O [Compound 26, (S)-1-(2,5-difluorophenyl)-2,2-difluoroethyl (1-methyl-4-(6-methyl-5-(methylsulfonamido)pyridin-2-yl)-1H-1,2,3-triazol-5-yl)carbamate] | 0.0341 µM |
| Cc1nc(-c2nnn(C)c2NC(=O)OCCCC(C)(C)C)ccc1NS(C)(=O)=O [Compound 30, 4,4-dimethylpentyl (1-methyl-4-(6-methyl-5-(methylsulfonamido)pyridin-2-yl)-1H-1,2,3-triazol-5-yl)carbamate] | 0.667 µM |
| C[C@@H](OC(=O)Nc1c(-c2ccc(NS(C)(=O)=O)c(C(F)F)n2)nnn1C)c1ccccc1 [Compound 150, (R)-1-phenylethyl (4-(6-(difluoromethyl)-5-(methylsulfonamido)pyridin-2-yl)-1-methyl-1H-1,2,3-triazol-5-yl)carbamate] | 1.05 µM |
| CCCCC[C@H](OC(=O)Nc1c(-c2ccc(NS(C)(=O)=O)c(C)n2)nnn1C)C(F)(F)F [Compound 47, (S)-1,1,1-trifluoroheptan-2-yl (1-methyl-4-(6-methyl-5-(methylsulfonamido)pyridin-2-yl)-1H-1,2,3-triazol-5-yl)carbamate] | 0.132 µM |

Further lines, results first:

| EC50 | SMILES |
| --- | --- |
| 0.588 µM | CCc1ncccc1[C@@H](C)OC(=O)Nc1c(-c2ccc(NS(C)(=O)=O)c(C)n2)nnn1C [Compound 151, (R)-1-(2-ethylpyridin-3-yl)ethyl (1-methyl-4-(6-methyl-5-(methylsulfonamido)pyridin-2-yl)-1H-1,2,3-triazol-5-yl)carbamate] |
| 1.13 µM | Cc1nc(-c2nnn(C)c2NC(=O)OC(C)c2ccncc2F)ccc1NS(C)(=O)=O (centres unmarked) [Compound 132, 1-(3-fluoropyridin-4-yl)ethyl (1-methyl-4-(6-methyl-5-(methylsulfonamido)pyridin-2-yl)-1H-1,2,3-triazol-5-yl)carbamate] |
| 0.623 µM | Cc1nc(-c2nnn(C)c2NC(=O)OC(C)c2cncc(Cl)c2)ccc1NS(C)(=O)=O (centres unmarked) [Compound 83, 1-(5-chloropyridin-3-yl)ethyl (1-methyl-4-(6-methyl-5-(methylsulfonamido)pyridin-2-yl)-1H-1,2,3-triazol-5-yl)carbamate] |
| 3.77 µM | Cc1nc(-c2nnn(C)c2NC(=O)OC(C)c2conc2C)ccc1NS(C)(=O)=O (centres unmarked) [Compound 136, 1-(3-methylisoxazol-4-yl)ethyl (1-methyl-4-(6-methyl-5-(methylsulfonamido)pyridin-2-yl)-1H-1,2,3-triazol-5-yl)carbamate] |
| 0.0234 µM | Cc1nc(-c2nnn(C)c2NC(=O)O[C@H](C)c2cc(F)ccc2F)ccc1NS(C)(=O)=O [Compound 63, (R)-1-(2,5-difluorophenyl)ethyl (1-methyl-4-(6-methyl-5-(methylsulfonamido)pyridin-2-yl)-1H-1,2,3-triazol-5-yl)carbamate] |
| 0.0238 µM | Cc1nc(-c2nnn(C)c2NC(=O)O[C@H](C)c2ccccc2Cl)ccc1NS(C)(=O)=O [Compound 11, (R)-1-(2-chlorophenyl)ethyl (1-methyl-4-(6-methyl-5-(methylsulfonamido)pyridin-2-yl)-1H-1,2,3-triazol-5-yl)carbamate] |
| 0.0413 µM | Cc1nc(-c2nnn(C)c2NC(=O)O[C@H](C)c2ccccc2F)ccc1NS(C)(=O)=O [Compound 93, (R)-1-(2-fluorophenyl)ethyl(1-methyl-4-(6-methyl-5-(methylsulfonamido)pyridin-2-yl)-1H-1,2,3-triazol-5-yl)carbamate] |
| 0.0577 µM | Cc1ccc(C)c([C@@H](C)OC(=O)Nc2c(-c3ccc(NS(C)(=O)=O)c(C)n3)nnn2C)c1 [Compound 27, (R)-1-(2,5-dimethylphenyl)ethyl (1-methyl-4-(6-methyl-5-(methylsulfonamido)pyridin-2-yl)-1H-1,2,3-triazol-5-yl)carbamate] |
| 0.378 µM | Cc1nc(-c2nnn(C)c2NC(=O)OC(C)c2cncc(F)c2Cl)ccc1NS(C)(=O)=O (centres unmarked) [Compound 78, 1-(4-chloro-5-fluoropyridin-3-yl)ethyl (1-methyl-4-(6-methyl-5-(methylsulfonamido)pyridin-2-yl)-1H-1,2,3-triazol-5-yl)carbamate] |
| 2.98 µM | Cc1nc(-c2nnn(C)c2NC(=O)O[C@H](C)c2ccnn2C)ccc1NS(C)(=O)=O [Compound 135, (R)-1-(1-methyl-1H-pyrazol-5-yl)ethyl (1-methyl-4-(6-methyl-5-(methylsulfonamido)pyridin-2-yl)-1H-1,2,3-triazol-5-yl)carbamate] |
| 0.127 µM | CCc1nc(-c2nnn(C)c2NC(=O)O[C@H](C)c2cc(F)cnc2Cl)ccc1NS(C)(=O)=O [Compound 147, (R)-1-(2-chloro-5-fluoropyridin-3-yl)ethyl (4-(6-ethyl-5-(methylsulfonamido)pyridin-2-yl)-1-methyl-1H-1,2,3-triazol-5-yl)carbamate] |
